Assay results published in patent US12054447B2, “PCNA inhibitors” (City of Hope, priority 2015, dated 2024).
Entries after “also recorded” stand apart in the source; their conditions may differ.

Key:
[1] = Liver microsome assay; format: in vitro ADME, human
Excerpt: FIG. 11. AOH1160 stability in a liver microsome assay. Liver is a major organ responsible for drug metabolism. We tested the stability of AOH1160 in a liver microsome assay. By analyzing the metabolites, we determined a major pathway responsible for AOH1160 metabolism.
Liver is a major organ responsible for drug metabolism. We tested the stability of AOH1160 in a liver microsome assay (FIG. 11). By analyzing the metabolites, we determined a major pathway responsible for AOH1160 metabolism.

[2] = tested on: neuroblastoma cells (SH-SY5Y and SK-N-BE(2)c); experiment: Cell cycle analysis; format: cell-based
Method: (§1) Cells were seeded at 1×10^5/ml in a 6-well plate. Once attached overnight, cells were treated with or without AOH1160 for 6 or 24 h. After being fixed in 60% ethanol and stained with propidium iodide (PI), cells were analyzed by flow cytometry to determine the cellular PI fluorescence intensity. The flow cytometry data were analyzed by the FlowJo program to model various cell populations.

[3] = tested on: NB cell lines; experiment: Cell viability assay on NB cell lines; format: cell-based, human; details: for concentrations that selectively kill neuroblastoma cells: FIG. 14A
Method: (§2) To measure the effect of the compounds on cell growth, cells were seeded at 3×10^4/ml into a 96-well plate. Once attached, cells were treated with various concentrations of AOH1160 for 72 h. Cell growth was measured by the CellTitor-Glo assay (Promega, Madison, WI) according to the manufacturer's instructions. To measure apoptosis, cells were seeded at 1×10^5/ml onto a chamber slide. Once attached, cells were treated with the 500 nM AOH1160 for 24 h. Cells were fixed and analyzed by a TUNEL assay using the TMR red in situ cell death detection kit (Roche Diagnostics, Indianapolis, IN).
To identify small molecule compounds that target the PCNA and FEN1 interface, we started with known crystal structures of the PCNA/FEN1 complex that are available from the RCSB protein database. To improve the likelihood of identifying novel small molecules that specifically target caPCNA, we focused our virtual screen on the binding pocket in PCNA delineated by residues L126 and Y133 and screened databases consisting of more than 6.8 million chemical structures available at the AMRI. A set of 57 compounds identified by the virtual screen was acquired and further tested in a cell viability assay. A compound (AOH39) was selected for further development due to its anti-cancer activity and selectivity.

[4] = tested on: 7SM0032; experiment: Cell cycle analysis (PI, flow cytometry); format: cell-based, human; details: for cell cycle effect on normal cells: 7SM0032
Method: as §1

[5] = tested on: CAKI-1; experiment: NCI-60 panel test; format: cell-based; details: Homo sapiens; CAKI-1, NCI-60 5-dose study
Method: FIG. 7. NCI-60 panel test. The effect of AOH1160 on growth of the NCI-60 panel, which consists of 60 cancer cell lines representing 9 major cancer types, was tested in a 5-dose study. Shown are the Log IC50 values determined for each cell line. […] This study was performed by the National Institute of Cancer.
As observed in FIG. 7, the effect of AOH1160 on growth of the NCI-60 panel, which consists of 60 cancer cell lines representing 9 major cancer types, was tested in a 5-dose study. Shown are the Log IC50 values determined for each cell line.

[6] = tested on: non-malignant cells; experiment: Toxicity to non-malignant cells; format: cell-based
Method: as §2
To improve the anti-tumor potency of the compound while preserving its favorable selectivity, a series of compounds were synthesized and tested. […] The combined improvements in potency and selectivity lead to a significant improvement in the therapeutic window (FIG. 1). AOH1160 was tested in a broad range of non-malignant cells, including human primary mammary epithelial and small airway epithelial cells, and no significant toxicity was found in these cells up to a concentration of 10 μM.

[7] = tested on: SK-N-AS; experiment: Cell growth, CellTitor-Glo assay, 72 h; format: cell-based; details: Homo sapiens
Method: (§3) The human NB cell lines, SK-N-DZ, SK-N-BE(2)c, SK-N-AS, and LAN-5 obtained from the American Type Culture Collection (Rockville, MD), were cultured in DMEM with 10% fetal bovine serum (FBS), 100 units/ml penicillin, and 100 μg/ml streptomycin in the presence of 5% CO2 at 37° C. Human PBMCs from a healthy donor were purchased from Sanguine BioSciences (Valencia, CA) and grown in RPMI1640 with 10% FBS, 100 units/ml penicillin, 100 μg/ml streptomycin, and 10 ng/ml IL-2 in the presence of 5% CO2 at 37° C. Human embryonic progenitor cell line 7SM0032 was acquired from Millipore (Billerica, MA) and grown in the hEPM-1 Media Kit purchased from the same company. The plasmid pCBASce expresses the rare cutting I-SceI meganuclease. The U20S-derived cell lines, DR-GFP and EJ5-GFP, each contain a stably transfected reporter gene for DSB repair mediated by HR and end joining (EJ), respectively. These cell lines were cultured in DMEM medium with 10% FBS at 37° C. in the presence of 5% CO2.
as §2

[8] = tested on: SK-N-DZ; experiment: Cell growth, CellTitor-Glo assay, 72 h; format: cell-based; details: Homo sapiens
Method: as §3, §2

[9] = tested on: SK-N-BE(2)c; experiment: Cell growth, CellTitor-Glo assay, 72 h; format: cell-based; details: Homo sapiens
Method: as §3, §2

[10] = tested on: small cell lung cancer cells; experiment: Killing of small cell lung cancer cells; format: cell-based; details: FIG. 14B
[11] = tested on: SK-N-DZ; experiment: Cell cycle analysis (PI, flow cytometry); format: cell-based, human; details: NB cells (SK-N-DZ), 500 nM
Method: as §1

| SMILES | stability in a liver microsome assay ([1]; NADPH dependent metabolism) | cell cycle effect [2] | concentrations that selectively kill neuroblastoma cells [3] | cell cycle effect on normal cells [4] | GI50 [5] | toxicity to non-malignant cells ([6]; neural crest stem cells (7SM0032), hSAEC, PBMCs) | IC50 [7] | IC50 [8] | IC50 [9] | concentrations that selectively kill small cell lung cancer cells [10] | metabolic pathway in liver microsomes ([1]; human liver microsomes, NADPH) | IC50 ([3]; Homo sapiens, multiple NB cell lines, read-out: IC50 range over NB cell lines) | increase in compound potency over AOH39 in cell viability assays ([3]; NB cells) | cell cycle effect ([4]; 7SM0032 cells, 500 nM) | cell cycle effect [11] | toxicity to non-malignant cells compared with AOH39 ([6]; PBMC and 7SM0032 cells) | concentration causing significant toxicity (none found up to) ([6]; broad range of non-malignant cells incl. human primary mammary epithelial and small airway epithelial cells) |
| --- | --- | --- | --- | --- | --- | --- | --- | --- | --- | --- | --- | --- | --- | --- | --- | --- | --- |
| COc1cccc(Oc2ccccc2NC(=O)CNC(=O)c2cccc3ccccc23)c1 [PCNA7/ AOH1996] | stable to NADPH dependent metabolism; also recorded: stable in a liver microsome assay | caused S/G2 cell cycle arrest | below micromolar concentrations | exerted little effect on normal cells | 912 nM | minimal toxicity to non-malignant cells | 125 nM | 288 nM | 236 nM | below micromolar concentrations |  |  |  |  |  |  |  |
| O=C(CNC(=O)c1cccc2ccccc12)Nc1ccccc1Oc1cccc(O)c1 [PCNA2] |  |  |  |  |  |  | 192 nM | 539 nM | 485 nM |  |  |  |  |  |  |  |  |
| O=C(CNC(=O)c1cccc2ccccc12)Nc1ccccc1Oc1ccccc1 [AOH1160] |  | caused S/G2 cell cycle arrest | below micromolar concentrations | exerted little effect on normal cells | 355 nM |  | 108 nM | 238 nM | 326 nM | below micromolar concentrations | mainly metabolized through mono- and di-hydroxylation in a NADPH-dependent manner | 180 to 220 nM | 6-7 fold | doesn't significantly change the cell cycle profiles | causes cell cycle arrest | less toxic to non-malignant PBMC and 7SM0032 cells than AOH39 | > 10 µM |
| O=C(CNC(=O)c1cccc2ccccc12)Nc1ccccc1Oc1ccc(O)cc1 [PCNA1] |  |  |  |  |  |  | 157 nM | 467 nM | 490 nM |  |  |  |  |  |  |  |  |
| COc1ccc(Oc2ccccc2NC(=O)CNC(=O)c2cccc3ccccc23)cc1 [PCNA6] |  |  |  |  |  |  | 91 nM | 271 nM | 234 nM |  |  |  |  |  |  |  |  |
